We go through 87 compounds from ChEMBL document CHEMBL1157539, “Thousands of chemical starting points for antimalarial lead identification” (Nature, 2010).

Structures are written as SMILES.

The test relates to Plasmodium falciparum. In words: GSK_TCMDC: Inhibition of Plasmodium falciparum 3D7 in whole erythrocytes, using parasite LDH activity as an index of growth. The class given is functional, organism-based. The conditions noted are these: Plasmodium falciparum, 3D7.
Regarding `CN(C)CCCNc1c2ccccc2nc2ccccc12`, the XC50 is 1040 nM.

Compound `O=C(Cn1c(CCc2cccc(F)c2F)cc(=O)c2ccccc21)N(Cc1ccc(-c2ccc(C(F)(F)F)cc2)cc1)C1CCN(CCN2CCOCC2)CC1` gave an XC50 of 720 nM. For `Cc1ccc2c(=O)cc(CCc3cccc(F)c3F)n(CC(=O)N(Cc3ccc(-c4ccc(C(F)(F)F)cc4)cc3)C3CCN(C(C)C)CC3)c2n1` the value was 776 nM.

On to `CCC(=O)Oc1ccc(NC(=O)c2cccc(OC)c2)cc1`, for which the XC50 worked out at 771 nM.

Turning to `O=C(Nc1cccc(-c2nn3ncccc3c2-c2ccnc(Nc3ccc(N4CCOCC4)cc3)n2)c1)c1c(F)cccc1F`, the XC50 worked out at 158 nM. As to `Cc1cccc2nc(-c3ccc(-c4cccc(CNCc5ccc(S(C)(=O)=O)cc5)c4)s3)[nH]c12`, the XC50 turned out to be 334 nM. As for `COc1ccc2nccc([C@@H](O)CN3CCC(NCCOc4ccc(F)cc4Cl)CC3)c2c1`, the XC50 came to 276 nM. `O=C(CCC1CCCC1)N(Cc1ccc(-c2ccc(CNCCc3ccccc3)cc2)cc1)C1CCCNC1` (configuration not stated) registered an XC50 of 1220 nM.

`COc1ccc2c(NN=CC=Cc3ccccc3)ccnc2c1` came in with an XC50 of 770 nM.

Compound `CC(C)Sc1ccc(Cl)cc1CON1C(=N)N=C(N)NC1(C)C` came in with an XC50 of 3.2 nM.

Compound `CCC(=O)c1cc(C(=O)NCCc2cccc(OC)c2)ccc1OC` yielded an XC50 of 902 nM. Turning to `CS(=O)(=O)c1cccc(-c2cnc(N)c3cc(-c4ccc(F)cc4)ccc23)c1`, the XC50 was 903 nM. As to `CC(C)Cc1ccc(N2CCN(CCCCNC(=O)c3ccc(NC(=O)c4ccc(Cl)c(Cl)c4)cc3)CC2)cc1`, the XC50 amounted to 1200 nM. Next, `CCOC(=O)NCC(=O)Nc1cccc(-c2cccc(-c3nc4cc(C(F)(F)F)ccc4[nH]3)c2)c1`: 626 nM. Take `CCOCc1cn(CC(=O)c2ccc(-c3ccccc3)cc2)c(C)nc1=N`: the XC50 turned out to be 319 nM. `FC(F)(F)c1ccc2[nH]c(-c3ccc(-c4cccc(CN5CCC(CCN6CCCCC6)CC5)c4)cc3)nc2c1`: the XC50 was 153 nM.

In turn, `O=c1[nH]ccc2nc(N[C@@H]3CCNC3)nc(Nc3cccc(S(=O)(=O)N4CCOCC4)c3)c12` had an XC50 of 1230 nM.

The compound `CC(C)N1CCN(C(CN2CCN(CCCOc3ccc4ccccc4c3)CC2)c2ccc(F)cc2)CC1` (configuration not stated) came in with an XC50 of 581 nM.

Consider `CCCCCc1cc(O)c2c(c1)OC(C)(C)C=C2C1=CCN(Cc2ccsc2)CC1`, for which the XC50 came to 964 nM. Next, `COc1ccc(C(=C(C)CC(C)C(=O)O)c2ccccc2)cc1` (configuration not stated): 845 nM; `COc1ccc(NC(=O)Nc2nc(-c3ccc(Cl)c(C)c3)cs2)cc1N1CCN(C)CC1`: 266 nM.

Compound `CN(C)CCCNc1nccc(N(C)c2ccc(NC(=O)Nc3cc(C(F)(F)F)ccc3F)cc2)n1` came in with an XC50 of 980 nM.

`Cc1ccc2c(=NN=Cc3ccc(N(C)C)cc3)cc(C)[nH]c2c1` registered an XC50 of 881 nM.

Regarding `C#CCCC(=O)Nc1cccc(-c2cccc(-c3nc4cccc(C)c4[nH]3)c2)c1`, the XC50 is 736 nM.

For `O=C(Nc1ccc2c(c1)CCNCC2)Nc1ccc2ccccc2c1`, the XC50 turned out to be 622 nM. `COC(=O)Cn1c2ccccc2c2c(N)c(C(=O)OC)c(C)nc21` yielded an XC50 of 938 nM. For `Cc1cc(NC(=O)c2coc3cc(F)c(N4CC(C)N(C)C(C)C4)cc23)cnc1-c1ccc(C#N)cc1` (configuration not stated) the value was 695 nM.

Compound `O=C(c1cc2cccc([N+](=O)[O-])c2[nH]1)N1CCC(CCN2CCC(c3c[nH]c4ccccc34)CC2)CC1` returned an XC50 of 943 nM. For `COc1ccc2nccc([C@@H](O)CN3CCC(NS(=O)(=O)c4cc5c(cc4Cl)SCC(=O)N5)CC3)c2c1` the value was 982 nM.

Turning to `NC(=O)CCC(NC(=O)CNC(=O)Nc1cccc(C(F)(F)F)c1)C(=O)O` (configuration not stated), the XC50 stood at 803 nM. Regarding `COc1cc2nc(C)nc(Nc3ccc(Cc4ccccc4)cc3)c2cc1OC`, the XC50 was found to be 730 nM. Next, `COc1ccc(C2CC(=O)C3=C(C2)NC(C)=C(C(=O)OC2CCCC2)C3c2ccc(O)cc2)cc1OC` (configuration not stated): 565 nM; `Nc1ccc(Nc2ccnc3ccc(C(F)(F)F)cc23)cc1O`: 716 nM; `CS(=O)(=O)NCCCNCc1ccc(-c2ccc(-c3nc4cc(C(F)(F)F)ccc4[nH]3)cc2)cc1`: 457 nM. `O=C(NC1CCC(CCN2CCc3ccc(-c4cnccn4)cc3CC2)CC1)c1cccc(-n2cccn2)c1` (configuration not stated) yielded an XC50 of 899 nM. On to `NCCCNc1nccc(N2CCc3ncnc(Nc4ccc(OCc5cccc(F)c5)c(Cl)c4)c3C2)n1`, for which the XC50 turned out to be 832 nM.

In turn, `CCOc1ccc2c(=NN=Cc3ccc(F)cc3)cc(C)[nH]c2c1` showed an XC50 of 584 nM. Compound `CC(C)CNCc1ccc(-c2ccccc2CNC2CCN(Cc3ccccc3)CC2)cc1` yielded an XC50 of 565 nM. Next, `Nc1c(Cl)cc(C(O)CNCCCCCCOCCc2ccc(CO)s2)cc1Cl` (configuration not stated): 1050 nM.

The compound `CC(=O)N(Cc1ccc(-c2ccc(CNCCc3ccccc3)cc2)cc1)C1CCN(Cc2ccccc2)CC1` displayed an XC50 of 939 nM.

Regarding `CS(=O)(=O)c1ccc(CNCc2ccc(-c3cccc(-c4nc5ccccc5[nH]4)c3)cc2)cc1`, the XC50 is 326 nM.

For the compound `CC(C)CCOc1ccc(NC(=O)c2cccs2)cc1`, the XC50 was 514 nM. Compound `CC(C)(CNC(=O)[C@@H]1CCCN(CCOc2ccc(Cl)cc2)C1)c1nc(-c2ccc(Cl)c(O)c2)c(-c2ccncc2)[nH]1` yielded an XC50 of 881 nM. Next, `Nc1ncc(Cc2cc(Cl)c(N)c3ncccc23)c(N)n1`: 1120 nM; `COc1cccc(C(=O)NCCc2cccc(Cl)c2)c1OCc1ccccc1`: 1260 nM; `Cc1cc2nc(N/C(N)=N/C(=O)NC3CCCCC3)nc(C)c2cc1C`: 754 nM.

Compound `CCOC(=O)c1cn(CC)c2cc(OCc3ccccc3)ccc2c1=O` gave an XC50 of 947 nM. For `COc1ccc(-c2cc(Nc3nc(-c4cccc(Cl)c4)nc4ccccc34)ccn2)cc1` the value was 727 nM; for `CCCN(CCC)CCOc1ccc(C(O)(C#CC(O)(c2ccc(OCCN(CCC)CCC)cc2)c2cccc(Cl)c2)c2cccc(Cl)c2)cc1` (configuration not stated), 790 nM; for `FC(F)(F)c1cccc2c(NN=Cc3ccccc3)ccnc12`, 624 nM. For `CCCN1CCC=C(c2cccc(Nc3nccc(Nc4cc(OC)ccc4C)n3)c2)C1` the value was 1040 nM; for `O=C(O)C[C@H](NC(=O)[C@@H]1CCCN1C(=O)c1cccc(-c2ccc(Cl)c(Cl)c2)c1)C(=O)O`, 863 nM.

In turn, `FC(F)(F)c1cccc(N2CCC(CN3CCC(c4c[nH]c5ccccc45)CC3)CC2)n1` yielded an XC50 of 980 nM. Next, `COc1ccc(-c2cccc(NC(=O)c3ccc(Cl)cc3)c2)cc1CN(C)CCN(C)C`: 776 nM; `CCOc1cc2ncnc(Nc3ccc(OCc4c(F)cccc4F)c(OC)c3)c2cc1OCC`: 821 nM. Turning to `O=C(NC1CCN(c2ccnc3cc(Cl)ccc23)C1)c1ccccc1F` (configuration not stated), the XC50 turned out to be 971 nM. The compound `Oc1c(C(Nc2ccccn2)c2ccc(Cl)cc2Cl)ccc2cccnc12` (configuration not stated) had an XC50 of 892 nM. For `COC(=O)Cn1c(C2CCN(CC3CCN(C(=O)/C=C/c4ccc(Cl)c(Cl)c4)CC3)CC2)nc2ccccc21` the value was 1200 nM; for `c1cc(CN2CCCCC2)cc(OCCCNc2ccnc3ccccc23)c1`, 433 nM; for `CCCCN(CCCC)CCCCCCNc1c2ccccc2nc2ccccc12`, 776 nM. Turning to `N#Cc1ccc(/C=C/C(=O)NCCCCCN2CCCN(C(=O)Nc3ccc(Cl)c(C(F)(F)F)c3)CC2)cc1`, the XC50 is 437 nM. Consider `Cc1nccn1CCNC(=O)CN1CCC2(CCC1=O)CC(=O)c1ccccc1O2` (configuration not stated), for which the XC50 is 802 nM. For `Nc1nc(N)c2c(Oc3ccc(Cl)c(Cl)c3)cccc2n1` the value was 871 nM. On to `O=C(NCCc1ccccc1)N(Cc1ccccc1-c1ccc(CNC2CCCC2)cc1)C1CCN(Cc2ccccc2)CC1`, for which the XC50 worked out at 1130 nM.

`Cc1cccc(Nc2nc(N)c3ccccc3n2)c1` displayed an XC50 of 574 nM. Regarding `Cc1ccc(CCNCC(O)c2cccc(C(F)(F)F)c2)cc1` (configuration not stated), the XC50 was determined as 868 nM. With `FC(F)(F)c1cnc(Sc2nnc(-c3ccncc3)o2)c(Cl)c1`, the XC50 amounted to 272 nM.

With `CCCCCCCc1ccc(-c2c(C)[nH]c(C)c(Cl)c2=O)cn1`, the XC50 amounted to 361 nM. Compound `COc1ccc2nc(C)cc(Nc3ccc(Oc4ccc(Br)c5ccccc45)c(Cl)c3)c2c1` came in with an XC50 of 277 nM.

As to `O=C(/C=C/c1ccc(Cl)c(Cl)c1)N1CCC(CN2C3CCC2CC(c2c[nH]c4ccccc24)C3)CC1` (configuration not stated), the XC50 came to 737 nM.

In turn, `O=C(Nc1cccc(-c2cccc(-c3nc4cc(F)ccc4[nH]3)c2)c1)Nc1ccc(F)c(F)c1F` returned an XC50 of 89.1 nM.

Take `COc1ccc(COc2cc(NCCCN)nc3ccccc23)cc1`: the XC50 stood at 1280 nM. `CC(C)(C)OC(=O)NCc1ccc(Nc2nnc(-c3ccc(OCC(=O)NCc4ccc(C(C)(C)C)cc4)c([N+](=O)[O-])c3)o2)cc1`: the XC50 was found to be 800 nM. With `Cc1c[nH]c(CCNC(=O)c2cc(-c3ccc(Cl)cc3)cs2)n1`, the XC50 is 242 nM. Compound `O=C(NCCN1CCN(S(=O)(=O)c2ccc(OC3CCNCC3)c(Br)c2)CC1)c1ccc(Cl)c(Cl)c1` showed an XC50 of 891 nM. On to `Oc1ccc2c(CNC3CCCCC3)c(O)ccc2c1CNC1CCCCC1`, for which the XC50 stood at 43.5 nM. As to `CN1CCN(CC2(Nc3nccc(NCc4ccc(Cl)cc4Cl)n3)CCCCC2)CC1`, the XC50 stood at 593 nM. In turn, `O=C(Nc1cccc(-c2cccc(-c3nc4cc(C(F)(F)F)ccc4[nH]3)c2)c1)c1ccc(=O)[nH]n1` yielded an XC50 of 656 nM. In turn, `O=C(Nc1cccc(OC2CCN(Cc3ccccc3)CC2)c1)Nc1cccc([N+](=O)[O-])c1` gave an XC50 of 783 nM. `O=C(/C=C/c1ccc(Cl)c(Cl)c1)N1CCC(CN2CCC(c3c[nH]c4cnccc34)CC2)CC1` showed an XC50 of 219 nM.

`COc1ccc(NC(=O)Nc2ccc(-c3ccncc3)c(C(F)(F)F)c2)cc1N1CCN(C)CC1`: the XC50 amounted to 763 nM. Next, `Cc1ccc(O)c(-c2cc(C(=O)Nc3ccc(S(=O)(=O)N4CCCCC4)cc3)[nH]n2)c1`: 805 nM.

As for `CCNc1cc(C(=O)N[C@@H](Cc2ccccc2)[C@H](O)CNCc2cccc(-n3ccnc3)c2)cc(N2CCCC2=O)c1`, the XC50 is 635 nM. Next, `CN1C(=O)C(=NN=C(S)N2CCOCC2)c2ccccc21`: 901 nM. Next, `CN1CCCC1CCCOC(=O)c1ccc(N)cc1` (configuration not stated): 916 nM; `CCCCCc1cc(O)c2c(c1)OC(C)(C)CC2C1=CCN(Cc2cccnc2)CC1` (configuration not stated): 991 nM. In the case of `Nc1nc(O)c2c(n1)CCc1c(Br)cccc1-2`, the XC50 worked out at 697 nM.
